The values below come from PMC5062470, “The mGluR2 positive allosteric modulator, SAR218645, improves memory and attention deficits in translational models of cognitive symptoms associated with schizophrenia” (Scientific Reports, 2016).

Bounds are passed on as bounds.

In data set [1] the target is T1, human mGluR2 (Homo sapiens, UniProt Q14416). Description: Multispan Allosteric Profiling panel, Ca2+ (Gqi5), control experiment. It counts as cell-based. The settings on record: increasing concentrations of SAR218645; Gqi5 cells.
T1 sequence (Q14416 19-872): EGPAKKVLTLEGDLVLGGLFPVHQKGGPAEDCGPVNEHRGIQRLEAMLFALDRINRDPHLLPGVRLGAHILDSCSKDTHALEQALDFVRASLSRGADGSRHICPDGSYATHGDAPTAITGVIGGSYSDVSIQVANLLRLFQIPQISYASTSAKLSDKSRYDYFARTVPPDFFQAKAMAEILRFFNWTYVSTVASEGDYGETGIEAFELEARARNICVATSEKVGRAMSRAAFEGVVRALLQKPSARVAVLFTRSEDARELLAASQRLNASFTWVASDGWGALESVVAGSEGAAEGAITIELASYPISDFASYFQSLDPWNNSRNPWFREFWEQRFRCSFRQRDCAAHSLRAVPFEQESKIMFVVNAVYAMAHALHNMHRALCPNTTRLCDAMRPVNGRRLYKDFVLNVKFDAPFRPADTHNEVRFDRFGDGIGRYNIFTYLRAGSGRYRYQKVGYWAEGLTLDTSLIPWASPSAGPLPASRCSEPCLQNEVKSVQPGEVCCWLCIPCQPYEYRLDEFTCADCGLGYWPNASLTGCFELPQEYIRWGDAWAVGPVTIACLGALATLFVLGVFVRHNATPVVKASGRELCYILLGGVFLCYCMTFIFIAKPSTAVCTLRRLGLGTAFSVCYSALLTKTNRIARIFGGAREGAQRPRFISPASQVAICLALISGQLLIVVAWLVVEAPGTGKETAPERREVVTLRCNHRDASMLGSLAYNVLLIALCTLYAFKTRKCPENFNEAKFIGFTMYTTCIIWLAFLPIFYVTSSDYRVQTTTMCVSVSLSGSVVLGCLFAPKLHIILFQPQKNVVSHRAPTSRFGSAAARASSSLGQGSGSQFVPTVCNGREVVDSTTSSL
A further data set concerns the target T2, human mGluR7 (Homo sapiens, UniProt Q14831).
T2 construct: host or cells: HEK293 co-expressing Gqi5
Kind of data set: Multispan Allosteric Profiling panel, Ca2+ (Gqi5). It is filed as cell-based.

Another data set deals with Sprague-Dawley rats. Kind of data set: Catalepsy test. The settings on record: 30, po. It is filed as in vivo. The method, then: Male Sprague-Dawley rats weighing 225–234 g were used. Each animal was placed such that their forepaws rested on a wooden dowel (1 × 18 cm) mounted horizontally 9 cm from the floor and 4 cm from one end of a white translucent plastic box (26 × 20 × 15 cm). The amount of time each rat spent with at least one forepaw on the bar was determined, for a maximum period of 540 s. This procedure was repeated three times. White noise was used during the acclimation and test periods to minimize the effects of outside noises. SAR218645 was administered alone at a dose of 30 mg/kg po. Haloperidol (1 mg/kg ip) was used alone and in co-administration with SAR218645 (1, 3, and 10 mg/kg, po). Statistics consisted of using a one-way ANOVA, followed by a post-hoc Dunnett’s test for individual comparisons. Ten animals per group were used.

Another data set concerns OF1 mice. Kind of data set: Maximal electroshock seizure (MES) test. It counts as in vivo. The method, then:
SAR218645 (30 mg/kg, po) and the reference anticonvulsant agent, diazepam (10 mg/kg), were administered ip to OF1 mice (12–14 g) 30 min prior to test, respectively. An electrical stimulus (60 Hz, 0.8 ms rectangular pulse, 0.4 s duration, 50 mA) was applied to both corneas. The occurrence of tonic extension of the hindlimbs was noted.
In general terms: Protection in the maximal electroshock model is a classic sign of anticonvulsant action.

The subject of the next data set is mice. Also on record: method as in earlier work. The following applies: cited from earlier work.
Data set [2] concerns the target T1, human mGluR2. Kind of data set: Forskolin-stimulated cAMP accumulation in HEK293 cells. It counts as cell-based. Also on record: expressed in transfected cells; host or cells: HEK293 Flp-in-T-REx (inducible), co-expressing Gα16. The method, then: Recombinant human mGluR2 receptor and the excitatory amino acid transporter SLCA1 were stably expressed in a doxycycline inducible HEK293 Flp-in-T-Rex cell line. […] Cells were treated with the compounds, and cAMP production was induced with 1 μM Forskolin for 5 min. cAMP was detected using the CisBio HTRF detection kit. […] EC50 were calculated using 4-parameter curve fitting.
(cAMP levels reflect the balance of adenylyl cyclase and phosphodiesterase activity.)

By EC50 is commonly meant the midpoint of the concentration-response curve.

T2 sequence (Q14831 35-915): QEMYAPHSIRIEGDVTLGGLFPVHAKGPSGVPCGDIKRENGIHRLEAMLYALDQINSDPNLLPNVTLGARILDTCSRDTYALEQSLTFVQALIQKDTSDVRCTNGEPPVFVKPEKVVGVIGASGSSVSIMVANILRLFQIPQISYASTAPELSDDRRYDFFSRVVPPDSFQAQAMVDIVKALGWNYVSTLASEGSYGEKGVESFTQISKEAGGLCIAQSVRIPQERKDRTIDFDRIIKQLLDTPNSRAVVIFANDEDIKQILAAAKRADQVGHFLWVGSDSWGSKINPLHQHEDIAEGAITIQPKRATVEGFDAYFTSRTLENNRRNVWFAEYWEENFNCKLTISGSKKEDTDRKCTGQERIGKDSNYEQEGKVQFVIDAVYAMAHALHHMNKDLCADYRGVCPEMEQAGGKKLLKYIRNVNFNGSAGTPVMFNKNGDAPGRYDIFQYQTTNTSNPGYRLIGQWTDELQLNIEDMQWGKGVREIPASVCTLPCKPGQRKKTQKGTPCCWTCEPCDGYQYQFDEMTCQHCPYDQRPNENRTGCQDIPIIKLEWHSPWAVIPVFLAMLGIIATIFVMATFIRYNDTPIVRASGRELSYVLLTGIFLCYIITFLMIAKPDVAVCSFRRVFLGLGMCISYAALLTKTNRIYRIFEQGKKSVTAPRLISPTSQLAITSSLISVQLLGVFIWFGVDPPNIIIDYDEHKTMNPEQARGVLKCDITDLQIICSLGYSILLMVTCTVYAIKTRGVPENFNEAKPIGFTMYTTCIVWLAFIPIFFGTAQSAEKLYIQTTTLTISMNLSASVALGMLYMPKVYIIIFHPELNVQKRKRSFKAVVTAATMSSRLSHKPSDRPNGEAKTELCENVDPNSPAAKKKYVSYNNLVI

Take `CC1(C)CCc2cc(OC[C@@H]3Cn4ccc(=O)nc4O3)ccc21` [SAR218645, (S)-2-(1,1-dimethyl-indan-5-yloxymethyl)-2,3-dihydro-oxazolo[3,2-a]pyrimidin-7-one]: the “effect on glutamate response” value at human mGluR2 [1] is given as “leftward shift”. At human mGluR7 (10 μM SAR218645), the “effect on glutamate-induced activation” value is recorded as “no effect”. Also, on human mGluR7 (SAR218645 alone), the “calcium response to compound alone” value was “did not elicit a calcium response”. Also, the Minimal active dose is above 30 mg/kg in the data set with Sprague-Dawley rats and above 30 mg/kg with OF1 mice (30, ip, OF1 mice). Moreover, in the data set on OF1 mice (30 mg/kg ip), the Tonic seizures is recorded as 100%. Also, the “effect on the activity of risperidone in the active avoidance test” value in the data set with mice is “did not interfere”. Also, the EC50 on human mGluR2 [2] worked out at 0.159 µM.
